For this test, the system named is carbapenem-resistant Escherichia coli isolate. The test is described as follows: Digital same-sample filtration AST, one treated and one concurrent reference condition (Example 6). Type of test: cell-based. Here is the method:
The inoculum was small enough that no detectable difference in the sample's optical density at 600 mm (OD600) was detectable by a spectrophotometer with a sensitivity of 0.01 absorbance units. The OD600 of the culture measured every 30 minutes after the culture was incubated at 37° C. to calculate the doubling time of the strain. The media became turbid with an OD600 of 0.28 absorbance units after 3.1 hours of incubation.
In this experiment, the number and volume of sample partitions was restricted, for logistical reasons, to 96 partitions 10 μL, in volume, specifically the wells of a 96-well plate. A goal was chosen of having a >98% chance of ending up with at least 48 empty partitions. When all partitions are the same volume, the following formula relates the expected number of empty partitions, the partition volume, and the density of cells.
N is the total number of partitions, n is the number of empty partitions, V is the partition volume, D is the density of cells, and t is a threshold probability chosen by the practitioner. Thus, in order to achieve digital sample partitioning with the available 96-well plate, the contrived clinical specimen was diluted to a cell density of 0.0375 cells/μL. Each 10 μL sample of the specimen would then contain 0.375 cells on average.
To begin the AST protocol, the contrived clinical sample was physically split into the 96 partitions by transferring 10 μL of the sample, in 96 separate transfers (actually 12 transfers with a multichannel pipette), to 96 wells of a microtiter plate. Each well contained 15 μL of Mueller-Hinton Broth (MHB) growth media. Half of the wells (48) contained 0 μg/mL of dissolved ETP antibiotic and served as reference condition antibiotic exposures. The other half of the wells contained 1.67 μg/mL of ETP (for a final concentration of 1.0 μg/mL) and served as 48 treated condition antibiotic exposures.
The 96 antibiotic exposures were incubated at 37° C. for 40 minutes.
The entire volume of each antibiotic exposure was transferred to a Millipore® 96-well sterile polystyrene MultiScreenHTS® filter plate (Millipore-Sigma MSGVS2210). Each well of the filter plate contained a hydrophilic polyvinylidene fluoride (PVDF) filter membrane with a 0.22 μm pore size. The antibiotic exposures were centrifuged at 2200 relative centrifugal force to speed the passage of the antibiotic exposure through the filter and into 96 collecting vessels. The collected fluid was called the “filtrate.” It is expected that the filtrate will contain all or most of the extracellular nucleic acids present in the antibiotic exposure, but none of the intracellular nucleic acids in the antibiotic exposure.
50 μL of fresh MHB media was spun through the filters after the first centrifugation (above) to wash away residual extracellular nucleic acids present in the fluid wetting the filters. This wash fluid is not collected with the filtrates.
10 μL of each of the filtrates was added to and mixed with 10 μL of Lucigen DNA Extraction Buffer, heated to 65° C. for 6 minutes, then heated to 98° C. for 4 minutes to create extracted filtrates.
20 μL of DNA Extraction Buffer was placed into all of the wells of the filter plate, on top of the filters. The filter plate was heated to 65° C. for 6 minutes, shaking at 700 rpm, on a ThermoMixer® flat surface heating block. Then, the filter plate was taped to a clean 96-well polypropylene microtiter plate and centrifuged at 2000 rcf for 2 minutes. The DNA Extraction Buffer fluid that flowed through the filter was collected in the microtiter plate below the filter plate. Next, the microtiter plate was heated to 98° C. for 4 minutes inside a BioRad thermocycler. These collected and heated fluid volumes are termed the “extracted lysate”. […]

The mark [1] stands for this setting: 1.0 μg/mL ETP, 40 minutes, assuming exponential division, doubling time approximately 30 minutes.
Where [2] appears, read: 1.0 μg/mL ETP, 40 minutes, simple estimate.
The mark [3] stands for this setting: Treated 1.0 μg ETP, 40 minutes 37° C., 48 partitions, ddPCR.

Take `C[C@@H](O)[C@H]1C(=O)N2C(C(=O)O)=C(S[C@@H]3CN[C@H](C(=O)Nc4cccc(C(=O)O)c4)C3)[C@H](C)[C@H]12` [ETP, ertapenem]: the “treated EINAPV (fraction extracellular), alternative estimate” value (1.0 μg/mL ETP, 40 minutes, alternative cell estimate, reference EINAPV 1/6) is 1/7. For the same compound, under setting [1], the “intact cells in treated condition (alternative estimate)” value was 6 and the “killed cells in treated condition (alternative estimate)” value is 1. For the setting “1.0 μg/mL ETP, 40 minutes, p-value vs 0.05 threshold”, the susceptibility call is recorded as “resistant”. Moreover, under setting [2], the “intact cells in treated condition at time of filtration (estimate)” value is given as 3 and the “killed cells in treated condition at time of filtration (estimate)” value is reported as 1. Under “1.0 μg/mL ETP, 40 minutes, simple estimate, reference EINAPV 1/4”, the “treated EINAPV (fraction extracellular)” value is reported as 1/4. Moreover, under setting [3], the “Both (number of wells)” value was found to be 0, the “Empty (number of wells)” value was 44, the “Extracellular only (number of wells)” value was found to be 1 and the “Intracellular only (number of wells)” value stood at 3.

The values are drawn from patent US20220282304A1, “SAME-SAMPLE ANTIBIOTIC SUSCEPTIBILITY TEST AND RELATED COMPOSITIONS, METHODS AND SYSTEMS” (CALIFORNIA INSTITUTE OF TECHNOLOGY, priority 2021, published 2022).
